Results: PubChem BioAssay (NCI)
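How tested: cells in 96-well plates exposed to compound for 48 hours at five concentrations. At the TGI there is no net growth.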

Experiments:
Test in all cases: NCI tumour cell line growth inhibition, 48 h
[1] = test system: CAKI-1 renal
[2] = test system: DU-145 prostate
[3] = test system: HL-60(TB) leukemia
[4] = test system: T-47D breast
[5] = test system: 786-0 renal
[6] = test system: OVCAR-4 ovarian
[7] = test system: TK-10 renal
[8] = test system: RXF 393 renal
[9] = test system: MALME-3M melanoma
[10] = test system: OVCAR-8 ovarian
[11] = test system: K-562 leukemia
[12] = test system: SW-620 colon
[13] = test system: SR leukemia
[14] = test system: SK-MEL-2 melanoma
[15] = test system: SF-268 CNS
[16] = test system: EKVX NSCLC
[17] = test system: OVCAR-3 ovarian
[18] = test system: SK-OV-3 ovarian
[19] = test system: COLO 205 colon
[20] = test system: NCI-H226 lung
[21] = test system: SNB-75 CNS
[22] = test system: OVCAR-5 ovarian
[23] = test system: LOX IMVI melanoma
[24] = test system: SK-MEL-5 melanoma
[25] = test system: CCRF-CEM leukemia
[26] = test system: MOLT-4 leukemia
[27] = test system: RPMI-8226 leukemia
[28] = test system: NCI-H460 lung
[29] = test system: SN12C renal
[30] = test system: HOP-92 NSCLC
[31] = test system: HOP-62 NSCLC
[32] = test system: MCF7 breast
[33] = test system: UO-31 renal
[34] = test system: PC-3 prostate
[35] = test system: HCT-15 colon
[36] = test system: M14 melanoma
[37] = test system: IGROV1 ovarian
[38] = test system: HS 578T breast
[39] = test system: NCI-H23 lung
[40] = test system: MDA-MB-231 breast
[41] = test system: A498 renal
[42] = test system: HCT-116 colon
[43] = test system: SK-MEL-28 melanoma
[44] = test system: NCI-H522 lung
[45] = test system: KM12 colon
[46] = test system: UACC-62 melanoma
[47] = test system: MDA-MB-435
[48] = test system: HT29 colon
[49] = test system: UACC-257 melanoma
[50] = test system: ACHN renal
[51] = test system: SF-295 CNS
[52] = test system: SNB-19 CNS
[53] = test system: SF-539 CNS
[54] = test system: HCC-2998 colon
[55] = test system: MDA-N
[56] = test system: BT-549 breast
[57] = test system: NCI/ADR-RES ovarian
[58] = test system: M19-MEL melanoma
[59] = test system: DLD-1 colon
[60] = test system: XF 498 CNS
[61] = test system: DMS 273 small cell lung
[62] = test system: SNB-78 CNS
[63] = test system: HOP-18 NSCLC
[64] = test system: DMS 114 small cell lung
[65] = test system: A549 NSCLC
[66] = test system: U251 CNS
[67] = test system: KM20L2 colon

Cc1ccnc2[nH]c3ccccc3c(=O)c12 was tested, and the TGI [1] was 38.5 µM, the TGI [2] was > 100 µM and the TGI [3] was 61.3 µM. For the same molecule, the TGI [4] was > 100 µM, the TGI [5] was > 100 µM and the TGI [6] was > 100 µM. It also gave a TGI [7] of 36.3 µM, a TGI [8] of 41.8 µM and a TGI [9] of 43.1 µM. The TGI [10] was > 100 µM, the TGI [11] was > 100 µM and the TGI [12] was > 100 µM. For the same molecule, the TGI [13] was > 100 µM, the TGI [14] was 68.7 µM and the TGI [15] was 45.5 µM. For the same molecule, the TGI [16] was 71.7 µM, the TGI [17] was 72.1 µM and the TGI [18] was > 100 µM. For the same molecule, the TGI [19] was 59.1 µM, the TGI [20] was > 100 µM and the TGI [21] was 32.1 µM. For the same molecule, the TGI [22] was > 100 µM, the TGI [23] was > 100 µM and the TGI [24] was 33.2 µM. The TGI [25] was > 100 µM, the TGI [26] was 55.1 µM and the TGI [27] was 95.8 µM. The TGI [28] was 97.5 µM, the TGI [29] was 52.4 µM and the TGI [30] was > 100 µM. The TGI [31] was > 100 µM, the TGI [32] was > 100 µM and the TGI [33] was > 100 µM. For the same molecule, the TGI [34] was 81.6 µM, the TGI [35] was > 100 µM and the TGI [36] was > 100 µM. It also gave a TGI [37] of 49.5 µM, a TGI [38] of 48 µM and a TGI [39] of 90.6 µM. The TGI [40] was > 100 µM, the TGI [41] was > 100 µM and the TGI [42] was > 100 µM. It also gave a TGI [43] of 47.5 µM, a TGI [44] of 32.9 µM and a TGI [45] of 50.3 µM. The TGI [46] was 40 µM, the TGI [47] was 41.8 µM and the TGI [48] was 36 µM. The TGI [49] was > 100 µM, the TGI [50] was > 100 µM and the TGI [51] was > 100 µM. The TGI [52] was > 100 µM, the TGI [53] was 46.6 µM and the TGI [54] was 65 µM. For the same molecule, the TGI [55] was 47 µM, the TGI [56] was 86.7 µM and the TGI [57] was > 100 µM.
With CCOC(=O)C(=[N+]=[N-])[Si](C)(C)C the TGI [1] was > 100 µM, the TGI [58] was > 100 µM and the TGI [5] was > 100 µM. For the same molecule, the TGI [6] was > 100 µM, the TGI [7] was > 100 µM and the TGI [8] was > 100 µM. The TGI [9] was > 100 µM, the TGI [10] was > 100 µM and the TGI [12] was > 100 µM. For the same molecule, the TGI [59] was > 100 µM, the TGI [14] was > 100 µM and the TGI [60] was > 100 µM. For the same molecule, the TGI [15] was 59.7 µM, the TGI [17] was > 100 µM and the TGI [61] was > 100 µM. For the same molecule, the TGI [19] was > 100 µM, the TGI [21] was > 100 µM and the TGI [62] was > 100 µM. The TGI [22] was > 100 µM, the TGI [23] was > 100 µM and the TGI [24] was > 100 µM. The TGI [63] was > 100 µM, the TGI [28] was > 100 µM and the TGI [64] was > 100 µM. For the same molecule, the TGI [29] was > 100 µM, the TGI [30] was > 100 µM and the TGI [31] was 49.7 µM. For the same molecule, the TGI [35] was > 100 µM, the TGI [37] was > 100 µM and the TGI [39] was > 100 µM. For the same molecule, the TGI [41] was > 100 µM, the TGI [42] was > 100 µM and the TGI [43] was 45.6 µM. For the same molecule, the TGI [45] was > 100 µM, the TGI [46] was > 100 µM and the TGI [48] was > 100 µM. For the same molecule, the TGI [65] was > 100 µM, the TGI [49] was > 100 µM and the TGI [50] was > 100 µM. For the same molecule, the TGI [51] was > 100 µM, the TGI [66] was 69.2 µM and the TGI [67] was > 100 µM. The TGI [52] was > 100 µM, the TGI [53] was > 100 µM and the TGI [54] was > 100 µM.
Molecule CN(C)CCCN1CCC2(CCC(C(C)(C)C)CC2)CC1 has a TGI [1] of 7.55 µM, a TGI [2] of 19.3 µM and a TGI [3] of 2.23 µM. For the same molecule, the TGI [4] was 3.99 µM, the TGI [5] was 3.09 µM and the TGI [6] was 17.3 µM. For the same molecule, the TGI [7] was 3.34 µM, the TGI [8] was 4.13 µM and the TGI [9] was 3.4 µM. The TGI [10] was 16.5 µM, the TGI [11] was 0.962 µM and the TGI [12] was 7.87 µM. The TGI [13] was 4.85 µM, the TGI [14] was 3.26 µM and the TGI [15] was 7.29 µM. For the same molecule, the TGI [16] was 19.4 µM, the TGI [17] was 10.9 µM and the TGI [18] was 22.8 µM. It also gave a TGI [19] of 3.04 µM, a TGI [20] of 19.9 µM and a TGI [21] of 4.11 µM. The TGI [22] was 9.08 µM, the TGI [23] was 3.22 µM and the TGI [24] was 3.02 µM. It also gave a TGI [25] of 4.82 µM, a TGI [26] of 5.74 µM and a TGI [27] of 10.5 µM. It also gave a TGI [28] of 2.36 µM, a TGI [29] of 20.6 µM and a TGI [30] of 10.1 µM. For the same molecule, the TGI [31] was 4.91 µM, the TGI [32] was 3.07 µM and the TGI [33] was 3.4 µM. The TGI [34] was 10.8 µM, the TGI [35] was 9.55 µM and the TGI [36] was 3.46 µM. The TGI [37] was 9.03 µM, the TGI [38] was 4.89 µM and the TGI [39] was 21.7 µM. The TGI [40] was 3.91 µM, the TGI [41] was 4.6 µM and the TGI [42] was 3.19 µM. It also gave a TGI [43] of 3.36 µM, a TGI [44] of 6.07 µM and a TGI [45] of 6.18 µM. For the same molecule, the TGI [46] was 3.33 µM, the TGI [47] was 1.19 µM and the TGI [48] was 1.7 µM. The TGI [65] was 12.1 µM, the TGI [49] was 2.76 µM and the TGI [50] was 18.8 µM. It also gave a TGI [51] of 3.96 µM, a TGI [66] of 3.64 µM and a TGI [52] of 11.8 µM. It also gave a TGI [53] of 3.89 µM, a TGI [54] of 0.417 µM and a TGI [55] of 2.44 µM. For the same molecule, the TGI [56] was 24.5 µM and the TGI [57] was 19.5 µM.
